Assay results taken from publication PMC9921564, “Novel Indole-Containing Hybrids Derived from Millepachine: Synthesis, Biological Evaluation and Antitumor Mechanism Study” (Molecules, 2023).

How the values were obtained:
Assay type in all cases: cell-based
[1] = test system: MCF-7 (human breast carcinoma cell line); test: CCK-8 antiproliferative assay, MCF-7; settings: MCF7, 48 h, read-out: IC50, Mean ± SE, MCF-7
[2] = test system: RWPE-1 (human prostate epithelial cells); test: CCK-8 cytotoxicity, RWPE-1 normal cells
Text: High cytotoxicity is one of the most limiting factors in chemotherapeutics.
(§1) A549 (non-small-cell-lung cancer cell line), Caski (human epithelial cervical cancer cell line), HepG2 (human liver carcinoma cell line), MCF-7 (human breast carcinoma cell line), C42B (human prostate cancer line C42B), L-02 (human normal hepatocytes), RWPE-1 (human prostate epithelial cells) and MCF-10A (human normal mammary epithelial cells) were obtained from National Collection of Authenticated Cell Cultures (Shanghai, China). […]
(§2) After 24 h, the medium containing different concentrations of tested compounds were added for another 48 h. […] The optical density was recorded with a microplate reader at 570 nm (Thermo Scientific, Varioskan LUX). All the experiments were repeated independently at least three times and the IC50 values were calculated […]
The fluorescence intensity enhancement (emission wavelength is 410 nm, excitation wavelength is 340 nm) was recorded every 60 s for 60 min in a multifunction microplate reader (Molecular Devices, Flex Station 3). […]

[3] = test system: A549/CDDP (A549 cell line resistant to cisplatin); test: CCK-8 cytotoxicity, A549/CDDP; settings: Homo sapiens, 48 h, CCK-8, cisplatin-resistant, read-out: IC50, Mean ± SE, A549/CDDP
Procedure: (§3) Besides the high cytotoxicity, drug resistance is the other limiting factor of chemotherapeutics. In this study, the cytotoxicities of compound 14b towards five kinds of drug-resistant cancer cell lines were also evaluated. Except three kinds of cell lines that are resistant to three drugs commonly used in clinical practice, two kinds of cell lines that are resistant to MTAs were also evaluated.
as §1, §2

[4] = test system: A2780 (human ovarian cancer cell line); test: CCK-8 cytotoxicity, A2780; settings: 48 h, read-out: IC50, Mean ± SE, A2780
Procedure: as §3, §1, §2

[5] = test system: HCT-8 (human ileocecum carcinoma cell line); test: CCK-8 cytotoxicity, HCT-8; settings: 48 h, read-out: IC50, Mean ± SE, HCT-8
Procedure: as §3, §1, §2

[6] = test system: HCT-8/VCR (HCT-8 cell line resistant to vincristine); test: CCK-8 cytotoxicity, HCT-8/VCR; settings: Homo sapiens, 48 h, CCK-8, vincristine-resistant, read-out: IC50, Mean ± SE, HCT-8/VCR
Procedure: as §3, §1, §2

[7] = test system: five kinds of human cancer cell lines (A549, Caski, HepG2, C42B, MCF-7); test: CCK-8 assay, panel of five human cancer cell lines; settings: 48 h, read-out: IC50 values, range over five human cancer cell lines

COc1ccc(C(=O)c2ccc3c(ccn3C)c2)c2c1C=CC(C)(C)O2 [compound 14b, (5-methoxy-2,2-dimethyl-2H-chromen-8-yl)(1-methyl-1H-indol-5-yl)methanone]
IC50 [1]: 27 ± 6 nM | IC50 ([2]; Homo sapiens, RWPE-1, 48 h, CCK-8, normal cells, read-out: IC50, Mean ± SE, RWPE-1): 3698 ± 36 nM | Selectivity Ratio ([2]; IC50 RWPE-1 / IC50 C42B): 72.51 | IC50 [3]: 35 ± 21 nM | IC50 [4]: 36 ± 4 nM | IC50 [5]: 89 ± 15 nM | IC50 [6]: 122 ± 36 nM | IC50 [7]: 22 to 74 nM
